Measurements taken from ChEMBL document CHEMBL4340527, “Discovery of potent anti-inflammatory 4-(4,5,6,7-tetrahydrofuro[3,2-c]pyridin-2-yl) pyrimidin-2-amines for use as Janus kinase inhibitors” (Bioorg Med Chem, 2019).

How the values were obtained:
[1] = molecular target: Tyrosine-protein kinase JAK2 (Homo sapiens, UniProt O60674)
Description: Inhibition of JAK2 (unknown origin) using TK-substrate-biotin as substrate preincubated for 5 mins followed by substrate addition and measured by 30 mins by HTRF assay

[2] = molecular target: T1, Tyrosine-protein kinase JAK3 (Homo sapiens, UniProt P52333)
T1 sequence (P52333 whole entry): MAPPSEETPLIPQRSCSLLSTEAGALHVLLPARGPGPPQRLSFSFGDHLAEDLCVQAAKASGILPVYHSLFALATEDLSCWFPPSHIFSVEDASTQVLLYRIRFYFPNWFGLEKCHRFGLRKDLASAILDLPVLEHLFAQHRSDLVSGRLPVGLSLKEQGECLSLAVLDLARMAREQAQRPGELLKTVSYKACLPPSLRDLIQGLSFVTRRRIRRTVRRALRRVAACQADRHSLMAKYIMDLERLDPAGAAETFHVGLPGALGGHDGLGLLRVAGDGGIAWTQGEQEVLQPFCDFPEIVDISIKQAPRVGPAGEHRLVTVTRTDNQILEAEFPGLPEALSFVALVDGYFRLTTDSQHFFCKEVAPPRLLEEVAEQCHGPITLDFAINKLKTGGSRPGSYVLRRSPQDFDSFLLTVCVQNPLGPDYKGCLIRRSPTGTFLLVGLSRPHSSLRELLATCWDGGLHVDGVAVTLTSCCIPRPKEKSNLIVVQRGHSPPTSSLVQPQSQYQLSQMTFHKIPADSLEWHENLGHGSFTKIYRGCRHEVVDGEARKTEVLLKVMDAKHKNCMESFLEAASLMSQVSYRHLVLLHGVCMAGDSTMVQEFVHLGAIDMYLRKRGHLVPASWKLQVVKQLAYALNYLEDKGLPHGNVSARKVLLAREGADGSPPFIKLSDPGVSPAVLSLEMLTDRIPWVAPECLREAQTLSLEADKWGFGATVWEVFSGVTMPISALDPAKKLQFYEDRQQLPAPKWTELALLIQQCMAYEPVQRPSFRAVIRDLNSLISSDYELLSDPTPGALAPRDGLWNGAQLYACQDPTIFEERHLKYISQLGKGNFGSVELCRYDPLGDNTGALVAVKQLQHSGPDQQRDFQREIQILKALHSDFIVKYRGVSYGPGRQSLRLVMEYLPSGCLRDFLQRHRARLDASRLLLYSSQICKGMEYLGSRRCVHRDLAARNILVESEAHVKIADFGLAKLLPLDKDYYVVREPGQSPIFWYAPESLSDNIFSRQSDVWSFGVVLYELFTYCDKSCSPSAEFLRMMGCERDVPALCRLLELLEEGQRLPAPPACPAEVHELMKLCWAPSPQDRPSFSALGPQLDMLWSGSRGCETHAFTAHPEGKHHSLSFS
Description: Inhibition of JAK3 (unknown origin) using TK-substrate-biotin as substrate preincubated for 5 mins followed by substrate addition and measured by 30 mins by HTRF assay

[3] = molecular target: T2, hERG (KCNH2) (Homo sapiens, UniProt Q12809); experiment: Inhibition of human ERG at 30 uM relative to control
T2 sequence (Q12809 whole entry): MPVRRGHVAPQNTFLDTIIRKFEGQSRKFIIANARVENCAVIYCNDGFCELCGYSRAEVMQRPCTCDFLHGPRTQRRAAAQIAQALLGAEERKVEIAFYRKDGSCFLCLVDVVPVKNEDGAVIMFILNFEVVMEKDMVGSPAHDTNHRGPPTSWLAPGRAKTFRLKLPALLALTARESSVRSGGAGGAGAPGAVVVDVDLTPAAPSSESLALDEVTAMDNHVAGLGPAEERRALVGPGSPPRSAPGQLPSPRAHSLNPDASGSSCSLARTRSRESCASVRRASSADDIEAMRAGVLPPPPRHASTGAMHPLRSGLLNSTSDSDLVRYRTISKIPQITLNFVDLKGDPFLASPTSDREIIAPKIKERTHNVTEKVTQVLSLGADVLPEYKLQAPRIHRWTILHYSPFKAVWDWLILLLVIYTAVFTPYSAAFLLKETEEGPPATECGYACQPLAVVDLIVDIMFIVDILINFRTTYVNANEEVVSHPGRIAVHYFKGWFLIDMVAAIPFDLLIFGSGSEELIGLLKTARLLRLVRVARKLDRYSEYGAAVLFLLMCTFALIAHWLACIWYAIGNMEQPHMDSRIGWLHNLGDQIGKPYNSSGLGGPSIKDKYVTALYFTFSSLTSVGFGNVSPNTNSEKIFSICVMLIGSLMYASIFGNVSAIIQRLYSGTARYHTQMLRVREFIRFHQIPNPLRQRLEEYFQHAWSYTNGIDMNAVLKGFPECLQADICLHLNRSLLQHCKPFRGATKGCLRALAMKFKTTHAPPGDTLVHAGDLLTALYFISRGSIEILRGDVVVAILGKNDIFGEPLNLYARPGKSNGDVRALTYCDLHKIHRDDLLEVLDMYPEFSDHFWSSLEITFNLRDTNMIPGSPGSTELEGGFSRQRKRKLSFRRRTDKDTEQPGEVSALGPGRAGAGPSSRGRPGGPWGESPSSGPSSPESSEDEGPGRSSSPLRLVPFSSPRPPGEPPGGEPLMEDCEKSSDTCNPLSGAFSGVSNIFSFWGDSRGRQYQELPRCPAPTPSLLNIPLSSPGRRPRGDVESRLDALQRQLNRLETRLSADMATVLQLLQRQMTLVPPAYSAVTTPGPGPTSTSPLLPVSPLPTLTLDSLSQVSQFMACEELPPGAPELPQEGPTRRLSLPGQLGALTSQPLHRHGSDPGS

[4] = in vivo; settings: rat, po, 5 mg/kg
[5] = in vivo; settings: Sprague-Dawley, rat, po, 10 mg/kg
[6] = in vivo; settings: Sprague-Dawley, rat, po, 10 mg/kg; remark: listed apart in the source
[7] = Clearance in Sprague-Dawley rat at 2.5 mg/kg, iv after 2 mins to 24 hrs by LC-MS/MS analysis; type: ADME, organism-based; settings: in vivo
[8] = in vivo; settings: Sprague-Dawley, rat, po, 10 mg/kg; remark: listed apart in the source
[9] = Oral bioavailability in Sprague-Dawley rat at 10 mg/kg after 2 mins to 24 hrs by LC-MS/MS analysis; type: ADME, organism-based; settings: in vivo
[10] = system: Rattus norvegicus; type: functional
[11] = molecular target: T2, hERG (KCNH2); experiment: Inhibition of human ERG at 3 uM relative to control
[12] = in vivo; settings: Sprague-Dawley, rat, po, 10 mg/kg; remark: listed apart in the source
[13] = molecular target: Tyrosine-protein kinase JAK1 (Homo sapiens, UniProt P23458)
Tyrosine-protein kinase JAK1, sequence (P23458 whole entry): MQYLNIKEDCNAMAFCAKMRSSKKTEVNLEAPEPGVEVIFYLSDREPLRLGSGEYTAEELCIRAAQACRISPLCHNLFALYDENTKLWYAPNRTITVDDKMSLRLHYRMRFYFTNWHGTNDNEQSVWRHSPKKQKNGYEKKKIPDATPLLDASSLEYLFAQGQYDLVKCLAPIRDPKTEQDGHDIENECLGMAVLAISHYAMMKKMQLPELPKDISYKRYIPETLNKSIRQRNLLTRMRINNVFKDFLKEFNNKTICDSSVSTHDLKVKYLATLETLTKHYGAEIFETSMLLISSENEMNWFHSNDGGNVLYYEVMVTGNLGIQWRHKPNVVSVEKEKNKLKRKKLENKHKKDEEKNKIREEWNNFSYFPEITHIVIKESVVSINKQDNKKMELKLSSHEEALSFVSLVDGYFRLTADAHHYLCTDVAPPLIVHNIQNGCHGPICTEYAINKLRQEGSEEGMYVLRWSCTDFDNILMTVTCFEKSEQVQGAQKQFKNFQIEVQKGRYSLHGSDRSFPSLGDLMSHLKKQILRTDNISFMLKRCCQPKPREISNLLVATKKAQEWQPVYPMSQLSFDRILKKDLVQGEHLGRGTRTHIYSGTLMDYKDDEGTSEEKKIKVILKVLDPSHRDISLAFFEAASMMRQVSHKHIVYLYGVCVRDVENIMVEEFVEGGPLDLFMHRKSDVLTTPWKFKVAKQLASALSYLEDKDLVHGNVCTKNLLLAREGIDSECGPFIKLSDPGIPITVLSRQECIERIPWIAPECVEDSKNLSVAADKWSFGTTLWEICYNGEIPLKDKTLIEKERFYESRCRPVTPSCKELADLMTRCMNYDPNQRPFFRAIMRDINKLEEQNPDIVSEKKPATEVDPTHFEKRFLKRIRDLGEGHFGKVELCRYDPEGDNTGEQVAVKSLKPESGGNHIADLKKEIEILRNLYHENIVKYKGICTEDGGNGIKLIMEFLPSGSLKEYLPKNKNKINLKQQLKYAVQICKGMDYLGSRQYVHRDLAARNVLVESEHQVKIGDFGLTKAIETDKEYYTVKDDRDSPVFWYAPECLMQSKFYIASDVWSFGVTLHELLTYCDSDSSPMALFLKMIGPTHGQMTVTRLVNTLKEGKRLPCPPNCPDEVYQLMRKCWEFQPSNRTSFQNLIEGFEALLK
Description: Inhibition of JAK1 (unknown origin) using TK-substrate-biotin as substrate preincubated for 5 mins followed by substrate addition and measured by 30 mins by HTRF assay

[14] = Half life in Sprague-Dawley rat at 2.5 mg/kg, iv after 2 mins to 24 hrs by LC-MS/MS analysis; type: ADME, organism-based; settings: in vivo
[15] = Volume of distribution in Sprague-Dawley rat at 2.5 mg/kg, iv after 2 mins to 24 hrs by LC-MS/MS analysis; type: ADME, organism-based; settings: in vivo, read-out: Vz
[16] = MRT (0 to t) in Sprague-Dawley rat at 2.5 mg/kg, iv after 2 mins to 24 hrs by LC-MS/MS analysis; type: ADME, organism-based; settings: in vivo
[17] = molecular target: Voltage-gated inwardly rectifying potassium channel KCNH2 (Homo sapiens, UniProt Q12809); experiment: Inhibition of human ERG
Voltage-gated inwardly rectifying potassium channel KCNH2, sequence (Q12809 whole entry): as the sequence (Q12809 whole entry) above

[18] = AUC (0 to t) in Sprague-Dawley rat at 2.5 mg/kg, iv after 2 mins to 24 hrs by LC-MS/MS analysis; type: ADME, organism-based; set-up: time 0.033-24 hr, dose 2.5 mg/kg, route intravenous; settings: in vivo
[19] = system: Rattus norvegicus; type: functional; remark: listed apart in the source
[20] = in vivo; settings: Sprague-Dawley, rat, po, 10 mg/kg; remark: listed apart in the source
[21] = molecular target: Non-receptor tyrosine-protein kinase TYK2 (Homo sapiens, UniProt P29597)
Description: Inhibition of Tyk2 (unknown origin)

[22] = Cmax in Sprague-Dawley rat at 2.5 mg/kg, iv after 2 mins to 24 hrs by LC-MS/MS analysis; type: ADME, organism-based; set-up: dose 2.5 mg/kg, route intravenous; settings: in vivo
[23] = molecular target: T2, hERG (KCNH2); experiment: Inhibition of human ERG at 0.3 uM relative to control
[24] = rat, in vivo, po, 10 mg/kg

Tyrosine-protein kinase JAK2, sequence (O60674 whole entry): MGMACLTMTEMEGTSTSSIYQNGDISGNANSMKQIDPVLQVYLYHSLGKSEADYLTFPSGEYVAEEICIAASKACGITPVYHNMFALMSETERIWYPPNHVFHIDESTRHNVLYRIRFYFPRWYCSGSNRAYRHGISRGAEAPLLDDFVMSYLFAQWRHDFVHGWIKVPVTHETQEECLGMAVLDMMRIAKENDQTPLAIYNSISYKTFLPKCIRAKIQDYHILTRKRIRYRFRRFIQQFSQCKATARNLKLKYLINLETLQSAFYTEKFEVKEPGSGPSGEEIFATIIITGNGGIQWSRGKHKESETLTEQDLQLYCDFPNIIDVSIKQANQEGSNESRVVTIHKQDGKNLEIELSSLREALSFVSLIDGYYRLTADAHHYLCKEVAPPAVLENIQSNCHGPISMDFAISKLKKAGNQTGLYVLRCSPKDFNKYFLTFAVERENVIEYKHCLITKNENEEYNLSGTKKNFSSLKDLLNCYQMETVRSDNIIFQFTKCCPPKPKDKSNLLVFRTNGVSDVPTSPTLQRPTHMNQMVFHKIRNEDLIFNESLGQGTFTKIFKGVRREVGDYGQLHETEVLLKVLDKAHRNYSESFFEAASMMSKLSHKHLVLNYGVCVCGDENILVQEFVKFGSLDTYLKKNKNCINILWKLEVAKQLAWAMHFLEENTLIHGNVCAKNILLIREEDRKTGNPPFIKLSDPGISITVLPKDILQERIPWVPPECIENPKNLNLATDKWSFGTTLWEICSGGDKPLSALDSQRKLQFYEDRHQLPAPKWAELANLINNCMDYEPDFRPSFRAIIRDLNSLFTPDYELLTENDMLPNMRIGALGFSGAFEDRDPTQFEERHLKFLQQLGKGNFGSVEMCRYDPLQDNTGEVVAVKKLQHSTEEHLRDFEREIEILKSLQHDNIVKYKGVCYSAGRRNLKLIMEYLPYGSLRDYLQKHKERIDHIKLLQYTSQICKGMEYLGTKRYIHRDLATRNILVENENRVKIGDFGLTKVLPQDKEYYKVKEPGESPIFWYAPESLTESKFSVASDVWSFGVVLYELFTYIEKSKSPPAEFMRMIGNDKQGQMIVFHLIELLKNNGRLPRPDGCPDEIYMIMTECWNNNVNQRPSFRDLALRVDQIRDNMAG

COc1cc(Nc2ncc(C)c(-c3cc4c(o3)CCN(C(=O)CC#N)C4)n2)cc(OC)c1OC
IC50 [1]: 1.6 nM
IC50 [2]: 12 nM

Cc1cnc(Nc2cc(F)c(N3CCOCC3)c(F)c2)nc1-c1cc2c(o1)CCN(C(=O)CC#N)C2
IC50 [1]: 4.2 nM
IC50 [2]: 88.1 nM

Cc1cnc(Nc2cccc(N3CCN(C)CC3)c2)nc1-c1cc2c(o1)CCN(S(C)(=O)=O)C2
IC50 [1]: 112 nM
IC50 [2]: 751 nM

Cc1cnc(Nc2ccccc2)nc1-c1cc2c(o1)CCN(S(C)(=O)=O)C2
IC50 [1]: 2.7 nM
IC50 [2]: 153 nM

Cc1cnc(Nc2cc(F)c(N3CCOCC3)c(F)c2)nc1-c1cc2c(o1)CCN(S(C)(=O)=O)C2
IC50 [1]: 3.7 nM
IC50 [2]: 195 nM

Cc1cnc(Nc2ccc(N3CCOCC3)cc2)nc1-c1cc2c(o1)CCN(C(=O)c1cccc(C#N)c1)C2
IC50 [1]: 35.4 nM
IC50 [2]: 552 nM

CCC(=O)N1CCc2oc(-c3nc(Nc4ccc(N5CCOCC5)cc4)ncc3C)cc2C1
IC50 [1]: 5.8 nM
IC50 [2]: 112 nM

Cc1cnc(Nc2ccc(-n3ccnc3)cc2)nc1-c1cc2c(o1)CCN(S(C)(=O)=O)C2
IC50 [1]: 10.8 nM
IC50 [2]: 91.3 nM

Cc1cnc(Nc2ccc(F)cc2)nc1-c1cc2c(o1)CCN(C(=O)CC#N)C2
IC50 [2]: 95.7 nM

Cc1cnc(Nc2ccc(OCCN3CCCC3)cc2)nc1-c1cc2c(o1)CCN(S(C)(=O)=O)C2
IC50 [1]: 4.1 nM
IC50 [2]: 56.7 nM

Cc1cnc(Nc2ccc(N3CCN(C)CC3)cc2)nc1-c1cc2c(o1)CCN(C(=O)CC#N)C2
IC50 [1]: 1.6 nM
IC50 [2]: 33.7 nM

Cc1cnc(Nc2ccc(N3CCOCC3)cc2)nc1-c1cc2c(o1)CCN(C(=O)C(C)C)C2
IC50 [1]: 6.4 nM
IC50 [2]: 32.4 nM

Cc1cnc(Nc2ccc(N3CCOCC3)cc2)nc1-c1cc2c(o1)CCN(C(=O)c1ccc(C#N)cc1)C2
IC50 [1]: 28.8 nM
IC50 [2]: 431 nM

Cc1cnc(Nc2ccc([N+](=O)[O-])cc2)nc1-c1cc2c(o1)CCN(C(=O)CC#N)C2
IC50 [1]: 14.2 nM
IC50 [2]: 275 nM

Cc1cnc(Nc2ccc(OCCN3CCCC3)cc2)nc1-c1cc2c(o1)CCN(C(=O)CC#N)C2
IC50 [1]: 9.6 nM
IC50 [2]: 52 nM

Cc1cnc(Nc2ccc(F)cc2)nc1-c1cc2c(o1)CCN(S(C)(=O)=O)C2
IC50 [1]: 12.1 nM
IC50 [2]: 5080 nM

Cc1cnc(Nc2ccccc2)nc1-c1cc2c(o1)CCN(C(=O)CC#N)C2
IC50 [1]: 2.9 nM
IC50 [2]: 94.7 nM

Cc1cnc(Nc2ccc(N3CCOCC3)cc2)nc1-c1cc2c(o1)CCN(C(=O)CC#N)C2
IC50 [1]: 0.5 to 0.7 nM
inhibition at 30 µM [3]: 16.4%
AUC at 240 h [4]: 1490 ng·h/mL
CL/F [5]: 71.8 mL/min/kg
Cmax [6]: 540 ng/mL
clearance [7]: 42 mL/min/kg
half-life [8]: 175 min
bioavailability [9]: 54.8%
Activity [10]: 14.1%
inhibition at 3 µM [11]: 11.2%
MRT last [12]: 3.49 h
IC50 [13]: 5.1 nM
half-life [14]: 33 min
Vd [15]: 2 L/kg
MRT last [16]: 30 min
IC50 [17]: > 30 µM
AUC(0-t) [18]: 1000 ng·h/mL
IC50 [2]: 7.6 to 13.5 nM
Activity [19]: 113.2%
AUC(0-t) [20]: 2190 ng·h/mL
IC50 [21]: 3 nM
Cmax [22]: 2340 ng/mL
inhibition at 0.3 µM [23]: 1.9%
Vz [24]: 17.82 L/kg
